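Cells were grown in 96-well plates and exposed to each compound for 48 hours at five concentrations; endpoints were interpolated linearly between bracketing concentrations, or set to the highest concentration if not reached. TGI: concentration producing complete growth inhibition.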
Tests used:
Assay in all cases: inhibition of tumour cell growth, NCI panel, 48 h
[1] = test system: SNB-75 CNS
[2] = test system: UO-31 renal
[3] = test system: HT29 colon
[4] = test system: CCRF-CEM leukemia
[5] = test system: EKVX NSCLC
[6] = test system: M19-MEL melanoma
[7] = test system: M14 melanoma
[8] = test system: RPMI-8226 leukemia
[9] = test system: SF-539 CNS
[10] = test system: LOX IMVI melanoma
[11] = test system: 786-0 renal
[12] = test system: SK-MEL-2 melanoma
[13] = test system: RXF-631 renal
[14] = test system: ACHN renal
[15] = test system: MALME-3M melanoma
[16] = test system: HL-60(TB) leukemia
[17] = test system: UACC-62 melanoma
[18] = test system: IGROV1 ovarian
[19] = test system: NCI-H23 lung
[20] = test system: SN12C renal
[21] = test system: HOP-92 NSCLC
[22] = test system: DMS 114 small cell lung
[23] = test system: DLD-1 colon
[24] = test system: LXFL 529 NSCLC
[25] = test system: SW-620 colon
[26] = test system: KM20L2 colon
[27] = test system: DMS 273 small cell lung
[28] = test system: SNB-78 CNS
[29] = test system: KM12 colon
[30] = test system: OVCAR-8 ovarian
[31] = test system: HCT-116 colon
[32] = test system: OVCAR-4 ovarian
[33] = test system: OVCAR-5 ovarian
[34] = test system: XF 498 CNS
[35] = test system: HOP-62 NSCLC
[36] = test system: SR leukemia
[37] = test system: COLO 205 colon
[38] = test system: U251 CNS
[39] = test system: UACC-257 melanoma
[40] = test system: HCT-15 colon
[41] = test system: A549 NSCLC
[42] = test system: NCI-H522 lung
[43] = test system: RXF 393 renal
[44] = test system: TK-10 renal
[45] = test system: MOLT-4 leukemia
[46] = test system: OVCAR-3 ovarian
[47] = test system: CAKI-1 renal
[48] = test system: SF-295 CNS
[49] = test system: NCI-H460 lung
[50] = test system: SNB-19 CNS
[51] = test system: SK-MEL-5 melanoma
[52] = test system: SK-MEL-28 melanoma
[53] = test system: HCC-2998 colon
[54] = test system: K-562 leukemia
[55] = test system: A498 renal
[56] = test system: NCI-H226 lung
[57] = test system: SK-OV-3 ovarian

Measured: TGI

CN(C)CCCN1CCc2c([nH]c3ccccc23)C1c1cccnc1 (configuration not stated)
> 100 µM: all assays above

From PubChem BioAssay (NCI)
